The source of these data is patent publication US20200055848A1, “FURANONE DERIVATES AND METHODS OF USE THEREOF” (CARNA BIOSCIENCES, INC., priority 2016, published 2020).

Data set [1] has as its target T1, human Cdc7/human ASK complex protein (Homo sapiens, UniProt O00311).
T1 construct: purchased Carna Biosciences, Inc
Description: Cdc7/ASK enzymatic assay. It is filed as biochemical. Particulars: 5 μM ATP; for Cdc7 inhibitory potency (in words): compared with compound 3; for IC50: mean of duplicated assays, read-out: Cdc7 IC50. As for the experimental part:
Measurement of Cdc7 kinase activity was carried out using MSA assay kit (QuickScout™ Screening Assist Kit, Carna Biosciences, Inc.). Assay buffer (20 mM HEPES, 0.01% Triton X-100™, 2 mM dithiothreitol, pH 7.5) was used to prepare a substrate mixture solution comprising 4 μM of kinase-reaction substrate (FITC-labeled MCM2 peptide), 40 mM MgCl2, and 4 times concentrations of final targeted ATP (5, 100, and 1,000 μM). The enzyme supplied in the kit (human Cdc7/human ASK complex protein) was diluted into the assay buffer to prepare a 7 nM solution (enzyme solution). The compound stock solution was prepared by diluting a 10 mM DMSO solution into the assay buffer (final 4% DMSO). The kinase reaction was performed by mixing of 5 μL of the compound solution, 5 μL of the substrate mixture solution, and 10 μL of the enzyme solution in a 384-well plate. For the pre-incubation assay, the compound solution and the enzyme solution were pre-mixed and incubated at ambient temperature for 30 min before adding into the substrate mixture solution to start enzymatic reaction. After the reaction at 25° C. for 5 hours, 60 μL of the termination buffer (supplied in the kit) was added to stop the reaction. The phosphorylation of substrate was measured using a LabChip EZ Reader II system (Caliper Life Sciences). The percent inhibition (%) by a tested compound was calculated according to the following formula:
Percent inhibition (%)=(1−(C−A)/(B−A))×100
A represents P/(P+S) for a blank well, B represents P/(P+S) for a solvent well, and C represents P/(P+S) for a compound-added well. S: the peak heights of the separated substrate, P: phosphorylated substrate.
The IC50 value of tested compound was calculated by regression analysis of the percent inhibition values versus the (logarithmic) concentration of the tested compound.

A short description of data set [2]: In vitro metabolic stability, human liver microsomes. The format is in vitro ADME. Particulars: 30 min treatment of human liver microsomes. As for the experimental part:
(§1) NADPH regeneration system (13 mM NADP, 33 mM Glucose-6-phospate, 33 mM MgCl2, and 4 U/mL of Glucose-6-phosphate dehydrogenase) and liver microsomes (1 mg/mL of HLM (BD Gentest, lot 18888) or MLM (BD Gentest, lot 31197)) in 0.1 M phosphate buffer (pH 7.4) were pre-incubated separately at 37° C. for 20 min before mixing with 1:4 ratio. 50 μL of the mixed solution was added to 50 μL of the test compound (2 μM) to initiate the reaction at 37° C. (final conc. 1 μM test compound, 0.4 mg/mL liver microsomes, and 1.3 mM NADPH). After 30 min, the reactions were stopped by adding 300 μL of cold acetonitrile. For 0 min samples, ice-cold acetonitrile (with system suitability standard) was treated before mixing the test compound and microsomes. The sample were vortexed well and then centrifuged at 3500 rpm at 15° C. for 20 min. 110 μL of supernatant was mixed with 110 μL of water and quantitated by LC-MS/MS workstation (Shimazu Corp.).
On the technique in general: Liver microsomes are vesicles of endoplasmic reticulum, rich in cytochrome P450 enzymes.

Data set [3] can be described thus: In vitro metabolic stability, mouse liver microsomes. As to conditions: 30 min treatment of mouse liver microsomes. The format is in vitro ADME. On the procedure:
as §1

The structures appear in SMILES notation. Structures can show the parent of a compound that is named as a salt. Some results are limits rather than exact numbers.

T1 sequence (O00311 whole entry): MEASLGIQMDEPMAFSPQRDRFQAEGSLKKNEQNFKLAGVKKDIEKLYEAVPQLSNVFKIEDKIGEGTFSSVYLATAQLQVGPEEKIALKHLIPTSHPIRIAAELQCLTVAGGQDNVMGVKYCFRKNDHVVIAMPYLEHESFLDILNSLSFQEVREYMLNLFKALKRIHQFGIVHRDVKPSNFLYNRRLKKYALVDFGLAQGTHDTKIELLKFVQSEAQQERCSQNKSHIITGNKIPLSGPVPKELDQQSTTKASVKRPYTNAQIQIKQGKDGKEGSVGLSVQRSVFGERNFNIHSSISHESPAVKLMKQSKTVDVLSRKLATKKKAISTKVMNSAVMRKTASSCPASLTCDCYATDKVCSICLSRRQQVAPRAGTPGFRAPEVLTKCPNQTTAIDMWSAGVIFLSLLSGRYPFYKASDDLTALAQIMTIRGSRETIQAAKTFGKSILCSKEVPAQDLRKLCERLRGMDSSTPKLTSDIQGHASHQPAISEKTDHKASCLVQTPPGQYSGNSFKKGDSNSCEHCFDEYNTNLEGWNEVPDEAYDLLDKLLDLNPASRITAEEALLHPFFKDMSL
T1 sequence (Q9UBU7 whole entry partner): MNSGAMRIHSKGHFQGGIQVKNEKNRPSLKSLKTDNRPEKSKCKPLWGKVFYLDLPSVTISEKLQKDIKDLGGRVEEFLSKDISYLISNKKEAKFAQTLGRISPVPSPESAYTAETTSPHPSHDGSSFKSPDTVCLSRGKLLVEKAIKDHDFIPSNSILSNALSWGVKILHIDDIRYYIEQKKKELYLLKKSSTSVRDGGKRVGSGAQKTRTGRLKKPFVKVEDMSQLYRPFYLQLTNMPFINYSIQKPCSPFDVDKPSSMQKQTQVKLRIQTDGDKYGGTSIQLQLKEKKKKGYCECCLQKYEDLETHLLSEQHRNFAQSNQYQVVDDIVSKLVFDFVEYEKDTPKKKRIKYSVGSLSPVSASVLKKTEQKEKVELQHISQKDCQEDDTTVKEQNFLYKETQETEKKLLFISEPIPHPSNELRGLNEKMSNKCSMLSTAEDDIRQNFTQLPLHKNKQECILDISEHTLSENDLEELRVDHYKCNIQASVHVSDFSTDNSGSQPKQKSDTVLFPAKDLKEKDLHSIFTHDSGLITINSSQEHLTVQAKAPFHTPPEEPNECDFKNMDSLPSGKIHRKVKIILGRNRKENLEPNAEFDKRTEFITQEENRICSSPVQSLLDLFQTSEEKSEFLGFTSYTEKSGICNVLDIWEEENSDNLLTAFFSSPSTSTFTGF

Take `CCNC(=O)C1=C(Nc2ccccc2)O/C(=C\c2c[nH]c3ncccc23)C1=O` [Compound 11, 5-((1H-Pyrrolo[2,3-b]pyridin-3-yl)methylene)-N-ethyl-4-oxo-2-(phenylamino)-4,5-dihydrofuran-3-carboxamide]: the “Cdc7 inhibitory potency (in words)” value in data set [1] was “significant decrease in potency”.
Take `CCOC(=O)C1=C(Nc2ccc(C)cc2C)OC(=Cc2c[nH]c3ncccc23)C1=O` [Compound 24, Ethyl 5-((1H-pyrrolo[2,3-b]pyridin-3-yl)methylene)-2-((2,4-dimethylphenyl)amino)-4-oxo-4,5-dihydrofuran-3-carboxylate]: in data set [1], the IC50 (usually the midpoint of a concentration-inhibition curve) worked out at 3.9 nM. The “HLM % (remaining % of parent compound)” value in data set [2] was determined as 63%. Further, the “MLM % (remaining % of parent compound)” value in data set [3] amounted to 30%.
Regarding `CCOC(=O)C1=C(NCCc2ccccc2)O/C(=C\c2c[nH]c3ncccc23)C1=O` [Compound 33, Ethyl 5-((1H-pyrrolo[2,3-b]pyridin-3-yl)methylene)-4-oxo-2-(phenethylamino)-4,5-dihydrofuran-3-carboxylate hydrochloride], in data set [1], the “Cdc7 inhibitory potency (in words)” value is on record as “some decrease in potency” and the IC50 was 30 nM.
`CCOC(=O)C1=C(Nc2ccccc2)OC(=Cc2ccc3c(c2)OCO3)C1=O` [Compound 7, Ethyl 5-(benzo[d][1,3]dioxol-5-ylmethylene)-4-oxo-2-(phenylamino)-4,5-dihydrofuran-3-carboxylate]: in data set [1], the IC50 is 3200 nM.
Turning to `O=C(O)C1=C(Nc2ccccc2)O/C(=C\c2c[nH]c3ncccc23)C1=O` [Compound 9, 5-((1H-Pyrrolo[2,3-b]pyridin-3-yl)methylene)-4-oxo-2-(phenylamino)-4,5-dihydrofuran-3-carboxylic acid], the IC50 in data set [1] is 9.9 nM.
Regarding `CCOC(=O)C1=C(Nc2ccccn2)OC(=Cc2c[nH]c3ncccc23)C1=O` [Compound 25, Ethyl 5-((1H-pyrrolo[2,3-b]pyridin-3-yl)methylene)-4-oxo-2-(pyridin-2-ylamino)-4,5-dihydrofuran-3-carboxylate], the IC50 in data set [1] amounted to 30 nM.
As for `CCOC(=O)C1=C(Nc2cccc(OC)c2)OC(=Cc2c[nH]c3ncccc23)C1=O` [Compound 17, Ethyl 5-((1H-pyrrolo[2,3-b]pyridin-3-yl)methylene)-2-((3-methoxyphenyl)amino)-4-oxo-4,5-dihydrofuran-3-carboxylate], in data set [1], the IC50 came out at 29 nM.
As to `CCOC(=O)C1=C(Nc2ccncc2)OC(=Cc2c[nH]c3ncccc23)C1=O` [Compound 27, Ethyl 5-((1H-pyrrolo[2,3-b]pyridin-3-yl)methylene)-4-oxo-2-(pyridin-4-ylamino)-4,5-dihydrofuran-3-carboxylate], the IC50 in data set [1] worked out at 3.5 nM.
For `CCOC(=O)C1=C(Nc2ccc(C)cc2)OC(=Cc2c[nH]c3ncccc23)C1=O` [Compound 22, Ethyl 5-((1H-pyrrolo[2,3-b]pyridin-3-yl)methylene)-4-oxo-2-(p-tolylamino)-4,5-dihydrofuran-3-carboxylate], the IC50 in data set [1] was 5.9 nM.
As to `CCOC(=O)C1=C(Nc2ccc(Cl)cc2)OC(=Cc2c[nH]c3ncccc23)C1=O` [Compound 15, Ethyl 5-((1H-pyrrolo[2,3-b]pyridin-3-yl)methylene)-2-((4-chlorophenyl)amino)-4-oxo-4,5-dihydrofuran-3-carboxylate], the IC50 in data set [1] amounted to 6.7 nM.
On to `CCOC(=O)C1=C(Nc2ccc(F)cc2)OC(=Cc2c[nH]c3ncccc23)C1=O` [Compound 20, Ethyl 5-((1H-pyrrolo[2,3-b]pyridin-3-yl)methylene)-2-((4-fluorophenyl)amino)-4-oxo-4,5-dihydrofuran-3-carboxylate], for which the IC50 in data set [1] is 4.3 nM. Further, the “HLM % (remaining % of parent compound)” value in data set [2] is reported as 52%. The “MLM % (remaining % of parent compound)” value in data set [3] is listed as 25%.
For `CCOC(=O)C1=C(Nc2cc[nH]n2)O/C(=C\c2c[nH]c3ncccc23)C1=O` [Compound 29, Ethyl 2-((1H-pyrazol-3-yl)amino)-5-((1H-pyrrolo[2,3-b]pyridin-3-yl)methylene)-4-oxo-4,5-dihydrofuran-3-carboxylate], the IC50 in data set [1] came out at 10 nM.
As to `CCOC(=O)C1=C(Nc2ccc(OC)cc2)OC(=Cc2c[nH]c3ncccc23)C1=O` [Compound 18, Ethyl 5-((1H-pyrrolo[2,3-b]pyridin-3-yl)methylene)-2-((4-methoxyphenyl)amino)-4-oxo-4,5-dihydrofuran-3-carboxylate], in data set [1], the IC50 came to 4.9 nM. The “HLM % (remaining % of parent compound)” value in data set [2] was 33%. In addition, the “MLM % (remaining % of parent compound)” value in data set [3] was found to be 5.1%.
In the case of `CCOC(=O)C1=C(Nc2cncnc2)O/C(=C\c2c[nH]c3ncccc23)C1=O` [Compound 28, Ethyl 5-((1H-pyrrolo[2,3-b]pyridin-3-yl)methylene)-4-oxo-2-(pyrimidin-5-ylamino)-4,5-dihydrofuran-3-carboxylate], in data set [1], the IC50 turned out to be 18 nM.
On the same count and under the same terms, the figure for `CCOC(=O)C1=C(Nc2ccccc2OC)OC(=Cc2c[nH]c3ncccc23)C1=O` [Compound 16, Ethyl 5-((1H-pyrrolo[2,3-b]pyridin-3-yl)methylene)-2-((2-methoxyphenyl)amino)-4-oxo-4,5-dihydrofuran-3-carboxylate] is 12 nM; for `CCOC(=O)C1=C(Nc2ccccc2)OC(=Cc2c[nH]c3ncc(Cl)cc23)C1=O` [Compound 5, Ethyl 5-((5-chloro-1H-pyrrolo[2,3-b]pyridin-3-yl)methylene)-4-oxo-2-(phenylamino)-4,5-dihydrofuran-3-carboxylate] it is 44 nM.
For `NC(=O)C1=C(Nc2ccccc2)O/C(=C\c2c[nH]c3ncccc23)C1=O` [Compound 10, 5-((1H-Pyrrolo[2,3-b]pyridin-3-yl)methylene)-4-oxo-2-(phenylamino)-4,5-dihydrofuran-3-carboxamide], in data set [1], the “Cdc7 inhibitory potency (in words)” value is “significant decrease in potency” and the IC50 is greater than 10000 nM.
With `CCOC(=O)C1=C(Nc2cccnc2)OC(=Cc2c[nH]c3ncccc23)C1=O` [Compound 26, Ethyl 5-((1H-pyrrolo[2,3-b]pyridin-3-yl)methylene)-4-oxo-2-(pyridin-3-ylamino)-4,5-dihydrofuran-3-carboxylate], the half-inhibitory concentration (IC50) in data set [1] was determined as 8 nM.
Take `CCOC(=O)C1=C(Nc2ccc3ncccc3c2)O/C(=C\c2c[nH]c3ncccc23)C1=O` [Compound 30, Ethyl 5-((1H-pyrrolo[2,3-b]pyridin-3-yl)methylene)-4-oxo-2-(quinolin-6-ylamino)-4,5-dihydrofuran-3-carboxylate]: the IC50 in data set [1] turned out to be 36 nM.
For the molecule `CCOC(=O)C1=C(Nc2cccc(Cl)c2)OC(=Cc2c[nH]c3ncccc23)C1=O` [Compound 14, Ethyl 5-((1H-pyrrolo[2,3-b]pyridin-3-yl)methylene)-2-((3-chlorophenyl)amino)-4-oxo-4,5-dihydrofuran-3-carboxylate], the IC50 in data set [1] stood at 12 nM.
`CCOC(=O)C1=C(Nc2ccccc2)OC(=Cc2ccc(O)c(C)c2)C1=O` [Compound 6, Ethyl 5-(4-hydroxy-3-methylbenzylidene)-4-oxo-2-(phenylamino)-4,5-dihydrofuran-3-carboxylate]: the IC50 in data set [1] is 1200 nM.
As to `CCOC(=O)C1=C(Nc2ccc3cn[nH]c3c2)OC(=Cc2c[nH]c3ncccc23)C1=O` [Compound 31, Ethyl 2-((1H-indazol-6-yl)amino)-5-((1H-pyrrolo[2,3-b]pyridin-3-yl)methylene)-4-oxo-4,5-dihydrofuran-3-carboxylate], the concentration for half-maximal inhibition (IC50) in data set [1] was 4 nM.
For the molecule `CCOC(=O)C1=C(NCc2ccccc2)O/C(=C\c2c[nH]c3ncccc23)C1=O` [Compound 32, Ethyl 5-((1H-pyrrolo[2,3-b]pyridin-3-yl)methylene)-2-(benzylamino)-4-oxo-4,5-dihydrofuran-3-carboxylate hydrochloride], in data set [1], the “Cdc7 inhibitory potency (in words)” value was “some decrease in potency” and the IC50 was determined as 23 nM.
In the same order, the values of `CCOC(=O)C1=C(Nc2ccccc2)SC(=Cc2c[nH]c3ncccc23)C1=O` [Compound 4, Ethyl 5-((1H-pyrrolo[2,3-b]pyridin-3-yl)methylene)-4-oxo-2-(phenylamino)-4,5-dihydrothiophene-3-carboxylate] are “retention of some potency” and greater than 10000 nM.
